Reference: PMC7034945 (RSC Advances, 2019)

What was measured:
[1] = test system: HIV-1 NL4-3 virus; test: Anti-HIV-1 activity, multicycle assay with HIV-1 NL4-3 in TZM-bl cells; format: cell-based; settings: for anti-HIV-1 activity (in words): at the test concentration
[2] = test system: TZM-bl cells; settings: Table 2; uninfected TZM-bl cells; NA = no cytotoxicity at the test concentration
[3] = in vitro; settings: human
[4] = Table 2, HIV-1 NL4-3, TZM-bl cells, NA = no anti-HIV-1 activity at the test concentration
[5] = Human immunodeficiency virus 1, NL43, TZM-bl
[6] = Caco-2, pH 7.4, Mean Papp A to B, Caco-2, 2 μM, 2 hours, pH 7.40
[7] = Caco-2, pH 7.4, Rank Papp, Caco-2, A to B, permeability class
[8] = Caco-2, pH 7.4, apparent permeability (Papp), Caco-2 cells

Molecule | EC50 [1, 5] | anti-HIV-1 activity (in words) ([1]; TZM-bl cells) | further results
3-(1-(2-(Hydroxymethyl)-5-(5-methyl-2,6-dioxo-1,2,3,6-tetrahydropyridin-3-yl)tetrahydrofuran-3-yl)-1H-1,2,3-triazol-4-yl)-N-((S)-1-((4-methoxyphenyl)(methyl)amino)-1-oxo-3-phenylpropan-2-yl)benzamide [III-15o] | – | – | EC50 [1, 4]: > 29.4 µM; CC50 [2]: > 29.4 µM
COc1ccc(N(C)C(=O)[C@H](Cc2cc(F)cc(F)c2)NC(=O)c2cccc(-c3cn(Cc4ccc5ccccc5c4)nn3)c2)cc1 [II-10j, (S)-N-(3-(3,5-Difluorophenyl)-1-((4-methoxyphenyl)(methyl)amino)-1-oxopropan-2-yl)-3-(1-(naphthalen-2-ylmethyl)-1H-1,2,3-triazol-4-yl)benzamide] | > 31.7 µM | – | –
COc1ccc(N(C)C(=O)[C@H](Cc2cc(F)cc(F)c2)NC(=O)c2cccc(-c3cn(Cc4cccc5ccccc45)nn3)c2)cc1 [II-10k, (S)-N-(3-(3,5-Difluorophenyl)-1-((4-methoxyphenyl)(methyl)amino)-1-oxopropan-2-yl)-3-(1-(naphthalen-1-ylmethyl)-1H-1,2,3-triazol-4-yl)benzamide] | > 31.7 µM | – | –
COC(=O)Cn1cc(-c2cccc(C(=O)N[C@@H](Cc3cc(F)cc(F)c3)C(=O)N(C)c3ccc(OC)cc3)c2)nn1 [II-10l, Methyl (S)-2-(4-(3-((3-(3,5-difluorophenyl)-1-((4-methoxyphenyl)(methyl)amino)-1-oxopropan-2-yl)carbamoyl)phenyl)-1H-1,2,3-triazol-1-yl)acetate] | – | lost anti-HIV-1 activity completely | –
CCOC(=O)Cn1cc(-c2cccc(C(=O)N[C@@H](Cc3cc(F)cc(F)c3)C(=O)N(C)c3ccc(OC)cc3)c2)nn1 [II-10m, Ethyl (S)-2-(4-(3-((3-(3,5-difluorophenyl)-1-((4-methoxyphenyl)(methyl)amino)-1-oxopropan-2-yl)carbamoyl)phenyl)-1H-1,2,3-triazol-1-yl)acetate] | – | lost anti-HIV-1 activity completely | –
COC(=O)CCCn1cc(-c2cccc(C(=O)N[C@@H](Cc3cc(F)cc(F)c3)C(=O)N(C)c3ccc(OC)cc3)c2)nn1 [II-10n, Methyl (S)-4-(4-(3-((3-(3,5-difluorophenyl)-1-((4-methoxyphenyl)(methyl)amino)-1-oxopropan-2-yl)carbamoyl)phenyl)-1H-1,2,3-triazol-1-yl)butanoate] | > 33.8 µM | lost anti-HIV-1 activity completely | –
COc1ccc(N(C)C(=O)[C@H](Cc2ccccc2)NC(=O)c2cccc(-c3cn(Cc4ccccc4[N+](=O)[O-])nn3)c2)cc1 [III-15a, (S)-N-(1-((4-Methoxyphenyl)(methyl)amino)-1-oxo-3-phenylpropan-2-yl)-3-(1-(2-nitrobenzyl)-1H-1,2,3-triazol-4-yl)benzamide] | > 33.9 µM | – | –
COc1ccc(N(C)C(=O)[C@H](Cc2ccccc2)NC(=O)c2cccc(-c3cn(Cc4cccc([N+](=O)[O-])c4)nn3)c2)cc1 [III-15b, (S)-N-(1-((4-Methoxyphenyl)(methyl)amino)-1-oxo-3-phenylpropan-2-yl)-3-(1-(3-nitrobenzyl)-1H-1,2,3-triazol-4-yl)benzamide] | > 33.9 µM | – | –
COc1ccc(N(C)C(=O)[C@H](Cc2ccccc2)NC(=O)c2cccc(-c3cn(Cc4ccc([N+](=O)[O-])cc4)nn3)c2)cc1 [III-15c, (S)-N-(1-((4-Methoxyphenyl)(methyl)amino)-1-oxo-3-phenylpropan-2-yl)-3-(1-(4-nitrobenzyl)-1H-1,2,3-triazol-4-yl)benzamide] | > 33.9 µM | – | –
COc1ccc(N(C)C(=O)[C@H](Cc2ccccc2)NC(=O)c2cccc(-c3cn(Cc4ccc(C(N)=O)cc4)nn3)c2)cc1 [III-15d, (S)-3-(1-(4-Carbamoylbenzyl)-1H-1,2,3-triazol-4-yl)-N-(1-((4-methoxyphenyl)(methyl)amino)-1-oxo-3-phenylpropan-2-yl)benzamide] | 26.2 ± 7.3 µM | exhibited anti-HIV-1 activity at the test concentration | SI (selectivity index, ratio of CC50/EC50) ([1]; Table 2, TZM-bl cells): >1.30
COc1ccc(N(C)C(=O)[C@H](Cc2ccccc2)NC(=O)c2cccc(-c3cn(CC(=O)Nc4ccccc4)nn3)c2)cc1 [III-15e, (S)-N-(1-((4-Methoxyphenyl)(methyl)amino)-1-oxo-3-phenylpropan-2-yl)-3-(1-(2-oxo-2-(phenylamino)ethyl)-1H-1,2,3-triazol-4-yl)benzamide] | > 34 µM | – | –
COc1ccc(N(C)C(=O)[C@H](Cc2ccccc2)NC(=O)c2cccc(-c3cn(Cc4ccc(S(N)(=O)=O)cc4)nn3)c2)cc1 [III-15f, (S)-N-(1-((4-Methoxyphenyl)(methyl)amino)-1-oxo-3-phenylpropan-2-yl)-3-(1-(4-sulfamoylbenzyl)-1H-1,2,3-triazol-4-yl)benzamide] | > 32 µM | – | –
COc1ccc(N(C)C(=O)[C@H](Cc2ccccc2)NC(=O)c2cccc(-c3cn(CCCc4ccccc4)nn3)c2)cc1 [III-15g, (S)-N-(1-((4-Methoxyphenyl)(methyl)amino)-1-oxo-3-phenylpropan-2-yl)-3-(1-(3-phenylpropyl)-1H-1,2,3-triazol-4-yl)benzamide] | > 34.9 µM | – | –
COc1ccc(N(C)C(=O)[C@H](Cc2ccccc2)NC(=O)c2cccc(-c3cn(Cc4ccc5ccccc5c4)nn3)c2)cc1 [III-15j, (S)-N-(1-((4-Methoxyphenyl)(methyl)amino)-1-oxo-3-phenylpropan-2-yl)-3-(1-(naphthalen-2-ylmethyl)-1H-1,2,3-triazol-4-yl)benzamide] | > 33.6 µM | – | –
COc1ccc(N(C)C(=O)[C@H](Cc2ccccc2)NC(=O)c2cccc(-c3cn(Cc4cccc5ccccc45)nn3)c2)cc1 [III-15k, (S)-N-(1-((4-Methoxyphenyl)(methyl)amino)-1-oxo-3-phenylpropan-2-yl)-3-(1-(naphthalen-1-ylmethyl)-1H-1,2,3-triazol-4-yl)benzamide] | > 33.6 µM | – | –
COCCc1ccc(OCC(O)CNC(C)C)cc1 (centres unmarked) [Metoprolol] | – | – | Papp A→B [3, 6]: 16.4 ×10⁻⁶ cm/s; Papp A→B [3, 7]: > 2.5 ×10⁻⁶ cm/s; Papp A→B [3, 8]: 16.4 ×10⁻⁶ cm/s
CC(C)(C)NCC(O)COc1cccc2c1CC(O)C(O)C2 (centres unmarked) [Nadolol] | – | – | Papp A→B [3, 6]: 0.08 ×10⁻⁶ cm/s; Papp A→B [3, 7]: < 0.5 ×10⁻⁶ cm/s; Papp A→B [3, 8]: 0.08 ×10⁻⁶ cm/s
(S)-N-(1-((4-Methoxyphenyl)(methyl)amino)-1-oxo-3-phenylpropan-2-yl)-3-(1-(naphthalen-1-ylmethyl)-1H-1,2,3-triazol-4-yl)benzamide [III-15l] | – | lost anti-HIV-1 activity completely | –
(S)-N-(1-((4-Methoxyphenyl)(methyl)amino)-1-oxo-3-phenylpropan-2-yl)-3-(1-(quinolin-2-yl)-1H-1,2,3-triazol-4-yl)benzamide [III-15i] | – | – | EC50 [1, 4]: > 34.3 µM; CC50 [2]: > 34.3 µM
(S)-N-(3-(3,5-Difluorophenyl)-1-((4-methoxyphenyl)(methyl)amino)-1-oxopropan-2-yl)-3-(1-(quinolin-2-yl)-1H-1,2,3-triazol-4-yl)benzamide [II-10i] | – | exhibited anti-HIV-1 activity at the test concentration | EC50 [1, 4]: 21.5 ± 4.53 µM; CC50 [2]: > 32.3 µM
Methyl (S)-2-(4-(3-((1-((4-methoxyphenyl)(methyl)amino)-1-oxo-3-phenylpropan-2-yl)carbamoyl)phenyl)-1H-1,2,3-triazol-1-yl)acetate [III-15m] | – | lost anti-HIV-1 activity completely | –
